The target in the experiment is T1, sodium ion channel (Nav1.7) (Homo sapiens, UniProt Q15858).
T1 construct: host or cells: HEK293
Description: Blocking effect against sodium ion channel (Nav1.7), IonFlux16 auto patch clamp, hNav1.7 HEK293 cells. The class given is cell-based. To be noted: peak current after 50 seconds treatment, eight concentrations. The procedure, abridged: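 HEK293 cells stably expressing human Nav1.7 were recorded by IonFlux16 automated patch clamp in extracellular solution (pH 7.45, final DMSO ≤0.3%). Peak current was measured after 50 s exposure to each of eight compound concentrations and expressed as percent inhibition relative to pre-compound current.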
In general terms: Patch clamp records ionic current or voltage across a cell membrane.

T1 sequence (Q15858 whole entry): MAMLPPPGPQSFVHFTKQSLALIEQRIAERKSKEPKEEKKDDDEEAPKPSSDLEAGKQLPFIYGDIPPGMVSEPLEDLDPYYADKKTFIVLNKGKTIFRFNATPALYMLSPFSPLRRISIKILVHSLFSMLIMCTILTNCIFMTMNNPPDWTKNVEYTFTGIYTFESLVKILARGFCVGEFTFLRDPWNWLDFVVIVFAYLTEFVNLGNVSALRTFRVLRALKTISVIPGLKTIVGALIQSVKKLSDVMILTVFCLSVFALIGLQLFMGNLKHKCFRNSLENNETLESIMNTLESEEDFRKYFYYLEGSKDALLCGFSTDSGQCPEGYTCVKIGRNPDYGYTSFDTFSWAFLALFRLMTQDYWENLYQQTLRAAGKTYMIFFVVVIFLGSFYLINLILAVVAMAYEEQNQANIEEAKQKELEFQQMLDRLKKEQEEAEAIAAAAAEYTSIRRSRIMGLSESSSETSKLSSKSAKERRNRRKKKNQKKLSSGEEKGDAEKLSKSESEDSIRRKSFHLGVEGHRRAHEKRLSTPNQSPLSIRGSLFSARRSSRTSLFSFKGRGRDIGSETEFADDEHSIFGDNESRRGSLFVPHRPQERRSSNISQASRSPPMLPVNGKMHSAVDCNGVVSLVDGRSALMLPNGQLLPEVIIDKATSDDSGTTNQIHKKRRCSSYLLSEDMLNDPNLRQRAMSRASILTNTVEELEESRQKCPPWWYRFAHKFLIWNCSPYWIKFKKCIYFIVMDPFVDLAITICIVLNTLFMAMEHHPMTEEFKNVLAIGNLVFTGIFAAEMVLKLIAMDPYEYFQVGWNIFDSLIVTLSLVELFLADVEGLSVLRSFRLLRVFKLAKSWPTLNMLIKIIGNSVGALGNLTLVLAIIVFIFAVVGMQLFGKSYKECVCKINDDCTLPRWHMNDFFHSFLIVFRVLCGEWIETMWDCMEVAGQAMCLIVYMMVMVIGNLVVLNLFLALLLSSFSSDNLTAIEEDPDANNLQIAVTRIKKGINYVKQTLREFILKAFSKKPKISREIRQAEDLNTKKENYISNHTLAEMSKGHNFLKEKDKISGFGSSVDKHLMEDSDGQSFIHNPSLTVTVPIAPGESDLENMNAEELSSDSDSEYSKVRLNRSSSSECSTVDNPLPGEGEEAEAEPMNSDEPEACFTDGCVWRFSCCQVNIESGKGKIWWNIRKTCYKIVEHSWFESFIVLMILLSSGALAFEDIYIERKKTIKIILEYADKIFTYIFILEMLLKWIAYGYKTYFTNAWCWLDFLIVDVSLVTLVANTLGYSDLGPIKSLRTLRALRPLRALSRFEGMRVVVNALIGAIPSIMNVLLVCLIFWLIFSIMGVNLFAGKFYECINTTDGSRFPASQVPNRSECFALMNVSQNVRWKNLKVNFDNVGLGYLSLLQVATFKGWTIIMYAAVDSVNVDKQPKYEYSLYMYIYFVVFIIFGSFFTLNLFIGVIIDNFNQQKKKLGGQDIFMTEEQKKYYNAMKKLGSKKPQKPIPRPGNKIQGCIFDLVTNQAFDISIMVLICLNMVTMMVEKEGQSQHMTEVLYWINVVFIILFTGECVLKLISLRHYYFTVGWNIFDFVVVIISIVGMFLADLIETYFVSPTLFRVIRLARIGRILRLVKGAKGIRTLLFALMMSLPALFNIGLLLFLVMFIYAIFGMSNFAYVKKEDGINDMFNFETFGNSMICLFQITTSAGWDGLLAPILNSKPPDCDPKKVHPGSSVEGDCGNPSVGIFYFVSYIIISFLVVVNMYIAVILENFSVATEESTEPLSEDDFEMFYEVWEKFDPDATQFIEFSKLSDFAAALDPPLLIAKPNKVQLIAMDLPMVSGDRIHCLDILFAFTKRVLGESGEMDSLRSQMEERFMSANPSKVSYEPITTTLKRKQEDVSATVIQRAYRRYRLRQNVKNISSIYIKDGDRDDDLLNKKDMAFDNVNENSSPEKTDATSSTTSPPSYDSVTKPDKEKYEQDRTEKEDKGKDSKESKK

What is called IC50 is the concentration that inhibits the measured activity by half. Low values mean higher potency, high ones lower potency. `O=S(=O)(Nc1cscn1)c1cc(Cl)c(Oc2cnc(-c3cc(Cl)ccc3F)cc2-c2cccnc2)cc1F` [Example 81, 5-chloro-4-((6′-(5-chloro-2-fluorophenyl)-[3,4′-bipyridin]-3′-yl)oxy)-2-fluoro-N-(thiazol-4-yl)benzenesulfonamide] displayed a half-maximal inhibitory concentration (IC50) above 100 nM.

On to `O=S(=O)(Nc1cscn1)c1cc(Cl)c(Oc2cnc(-c3ccc(F)c(F)c3)cc2-c2cccnc2)cc1F` [Example 82, 5-chloro-4-((6′-(3,4-difluorophenyl)-[3,4′-bipyridin]-3′-yl)oxy)-2-fluoro-N-(thiazol-4-yl)benzenesulfonamide], for which the IC50 was above 100 nM.

`N#Cc1cc(S(=O)(=O)Nc2cscn2)ccc1Oc1cnc(-c2cccc(F)c2)cc1-c1cn[nH]c1` [Example 83, 3-cyano-4-((6-(3-fluorophenyl)-4-(1H-pyrazol-4-yl)pyridin-3-yl)oxy)-N-(thiazol-4-yl)benzenesulfonamide] had an IC50 above 100 nM.

Take `N#Cc1cc(S(=O)(=O)Nc2cscn2)ccc1Oc1cnc(-c2cccc(F)c2)cc1-c1cccnc1` [Example 84, 3-cyano-4-((6′-(3-fluorophenyl)-[3,4′-bipyridin]-3′-yl)oxy)-N-(thiazol-4-yl)benzenesulfonamide]: the IC50 was above 100 nM.

The compound `N#Cc1cc(S(=O)(=O)Nc2cscn2)ccc1Oc1cnc(-c2ccc(F)c(F)c2)cc1-c1cccnc1` [Example 85, 3-cyano-4-((6′-(3,4-difluorophenyl)-[3,4′-bipyridin]-3′-yl)oxy)-N-(thiazol-4-yl)benzenesulfonamide] returned an IC50 above 100 nM.

Take `N#Cc1cc(S(=O)(=O)Nc2cscn2)ccc1Oc1cnc(-c2ccc(C(F)(F)F)c(F)c2)cc1-c1cccnc1` [Example 86, 3-cyano-4-((6′-(3-fluoro-4-(trifluoromethyl)phenyl)-[3,4′-bipyridin]-3′-yl)oxy)-N-(thiazol-4-yl)benzenesulfonamide]: the IC50 is above 100 nM.

For the compound `O=S(=O)(Nc1cscn1)c1cc(F)c(Oc2cnc(-c3cccc(F)c3)cc2-c2cccnc2)cc1F` [Example 87, 2,5-difluoro-4-((6′-(3-fluorophenyl)-[3,4′-bipyridin]-3′-yl)oxy)-N-(thiazol-4-yl)benzenesulfonamide], the IC50 is above 100 nM.

The compound `O=S(=O)(Nc1cscn1)c1cc(F)c(Oc2cnc(-c3ccc(F)c(F)c3)cc2-c2cccnc2)cc1F` [Example 88, 4-((6′-(3,4-difluorophenyl)-[3,4′-bipyridin]-3′-yl)oxy)-2,5-difluoro-N-(thiazol-4-yl)benzenesulfonamide] displayed an IC50 above 100 nM.

In turn, `O=S(=O)(Nc1cscn1)c1cc(F)c(Oc2cnc(-c3ccc(C(F)(F)F)c(F)c3)cc2-c2cccnc2)cc1F` [Example 89, 2,5-difluoro-4-((6′-(3-fluoro-4-(trifluoromethyl)phenyl)-[3,4′-bipyridin]-3′-yl)oxy)-N-(thiazol-4-yl)benzenesulfonamide] yielded an IC50 above 100 nM.

`N#Cc1cc(S(=O)(=O)Nc2cscn2)ccc1Oc1cnc(-c2ccc(F)cc2)cc1-c1cn[nH]c1` [Example 90, 3-cyano-4-((6-(4-fluorophenyl)-4-(1H-pyrazol-4-yl)pyridin-3-yl)oxy)-N-(thiazol-4-yl)benzenesulfonamide] had an IC50 above 100 nM.

In turn, `N#Cc1cc(S(=O)(=O)Nc2cscn2)ccc1Oc1cnc(-c2ccc(F)c(F)c2)cc1-c1cn[nH]c1` [Example 91, 3-cyano-4-((6-(3,4-difluorophenyl)-4-(1H-pyrazol-4-yl)pyridin-3-yl)oxy)-N-(thiazol-4-yl)benzenesulfonamide] displayed an IC50 above 100 nM.

`N#Cc1cc(S(=O)(=O)Nc2cscn2)ccc1Oc1cnc(-c2cccc(F)c2)cc1-c1cncnc1` [Example 92, 3-cyano-4-((6-(3-fluorophenyl)-4-(pyrimidin-5-yl)pyridin-3-yl)oxy)-N-(thiazol-4-yl)benzenesulfonamide] registered an IC50 above 100 nM.

On to `N#Cc1cc(S(=O)(=O)Nc2cscn2)ccc1Oc1cnc(-c2ccc(F)c(F)c2)cc1-c1cncnc1` [Example 93, 3-cyano-4-((6-(3,4-difluorophenyl)-4-(pyrimidin-5-yl)pyridin-3-yl)oxy)-N-(thiazol-4-yl)benzenesulfonamide], for which the IC50 is above 100 nM.

Consider `N#Cc1cc(S(=O)(=O)Nc2cscn2)ccc1Oc1cnc(-c2ccc(C(F)(F)F)c(F)c2)cc1-c1cncnc1` [Example 94, 3-cyano-4-((6-(3-fluoro-4-(trifluoromethyl)phenyl)-4-(pyrimidin-5-yl)pyridin-3-yl)oxy)-N-(thiazol-4-yl)benzenesulfonamide], for which the IC50 was above 100 nM.

Take `O=S(=O)(Nc1cscn1)c1cc(F)c(Oc2cnc(-c3cccc(F)c3)cc2-c2cncnc2)cc1F` [Example 95, 2,5-difluoro-4-((6-(3-fluorophenyl)-4-(pyrimidin-5-yl)pyridin-3-yl)oxy)-N-(thiazol-4-yl)benzenesulfonamide]: the IC50 is above 100 nM.

`O=S(=O)(Nc1cscn1)c1cc(F)c(Oc2cnc(-c3ccc(F)c(F)c3)cc2-c2cncnc2)cc1F` [Example 96, 4-((6-(3,4-difluorophenyl)-4-(pyrimidin-5-yl)pyridin-3-yl)oxy)-2,5-difluoro-N-(thiazol-4-yl)benzenesulfonamide] showed an IC50 above 100 nM.

Regarding `O=S(=O)(Nc1cscn1)c1cc(F)c(Oc2cnc(-c3ccc(C(F)(F)F)c(F)c3)cc2-c2cncnc2)cc1F` [Example 97, 2,5-difluoro-4-((6-(3-fluoro-4-(trifluoromethyl)phenyl)-4-(pyrimidin-5-yl)pyridin-3-yl)oxy)-N-(thiazol-4-yl)benzenesulfonamide], the IC50 was above 100 nM.

With `O=S(=O)(Nc1cscn1)c1cc(Cl)c(Oc2cnc(-c3ccc(F)c(F)c3)cc2-c2cn[nH]c2)cc1F` [Example 98, 5-chloro-4-((6-(3,4-difluorophenyl)-4-(1H-pyrazol-4-yl)pyridin-3-yl)oxy)-2-fluoro-N-(thiazol-4-yl)benzenesulfonamide], the IC50 is above 100 nM.

`O=S(=O)(Nc1cscn1)c1cc(Cl)c(Oc2cnc(-c3cccc(F)c3)cc2-c2cncc(N3CCCC3)c2)cc1F` [Example 99, 5-chloro-2-fluoro-4-((6′-(3-fluorophenyl)-5-(pyrrolidin-1-yl)-[3,4′-bipyridin]-3′-yl)oxy)-N-(thiazol-4-yl)benzenesulfonamide] showed an IC50 above 100 nM.

`O=S(=O)(Nc1cscn1)c1cc(Cl)c(Oc2cnc(-c3cccc(F)c3)cc2-c2cn(-c3cccnc3)cn2)cc1F` [Example 100, 5-chloro-2-fluoro-4-((6-(3-fluorophenyl)-4-(1-(pyridin-3-yl)-1H-imidazol-4-yl)pyridin-3-yl)oxy)-N-(thiazol-4-yl)benzenesulfonamide] had an IC50 above 100 nM.

`O=S(=O)(Nc1cscn1)c1cc(Cl)c(Oc2cnc(-c3cccc(F)c3)cc2-c2ccnc(N3CCOCC3)c2)cc1F` [Example 101, 5-chloro-2-fluoro-4-((6-(3-fluorophenyl)-2′-morpholino-[4,4′-bipyridin]-3-yl)oxy)-N-(thiazol-4-yl)benzenesulfonamide]: the concentration for half-maximal inhibition (IC50) lay within 51 to 100 nM.

The compound `O=S(=O)(Nc1cscn1)c1cc(Cl)c(Oc2cnc(-c3cccc(F)c3)cc2-c2ccnc(N3CCCCC3)c2)cc1F` [Example 102, 5-chloro-2-fluoro-4-((6-(3-fluorophenyl)-2′-(piperidin-1-yl)-[4,4′-bipyridin]-3-yl)oxy)-N-(thiazol-4-yl)benzenesulfonamide] registered an IC50 above 100 nM.

As for `N#Cc1cc(S(=O)(=O)Nc2nccs2)ccc1Oc1ccc(-c2cccnc2F)nc1-c1ccoc1` [Example 103, 3-cyano-4-((2′-fluoro-6-(furan-3-yl)-[2,3′-bipyridin]-5-yl)oxy)-N-(thiazol-2-yl)benzenesulfonamide], the 50% inhibitory concentration (IC50) is above 100 nM.

Regarding `N#Cc1cc(S(=O)(=O)Nc2nccs2)ccc1Oc1ccc(-c2ccc(F)nc2)nc1-c1ccoc1` [Example 104, 3-cyano-4-((6′-fluoro-6-(furan-3-yl)-[2,3′-bipyridin]-5-yl)oxy)-N-(thiazol-2-yl)benzenesulfonamide], the IC50 lay within 51 to 100 nM.

Regarding `N#Cc1cc(S(=O)(=O)Nc2nccs2)ccc1Oc1ccc(-c2cccnc2)nc1-c1ccoc1` [Example 105, 3-cyano-4-((6-(furan-3-yl)-[2,3′-bipyridin]-5-yl)oxy)-N-(thiazol-2-yl)benzenesulfonamide], the IC50 is above 100 nM.

In turn, `N#Cc1cc(S(=O)(=O)Nc2nccs2)ccc1Oc1ccc(-c2cncnc2)nc1-c1ccoc1` [Example 106, 3-cyano-4-((2-(furan-3-yl)-6-(pyrimidin-5-yl)pyridin-3-yl)oxy)-N-(thiazol-2-yl)benzenesulfonamide] had an IC50 above 100 nM.

Regarding `Cn1nccc1-c1nc(-c2ccnc(F)c2)ccc1Oc1ccc(S(=O)(=O)Nc2nccs2)cc1C#N` [Example 107, 3-cyano-4-((2′-fluoro-6-(1-methyl-1H-pyrazol-5-yl)-[2,4′-bipyridin]-5-yl)oxy)-N-(thiazol-2-yl)benzenesulfonamide], the IC50 was above 100 nM.

Compound `N#Cc1cc(S(=O)(=O)Nc2nccs2)ccc1Oc1ccc(-c2ccccc2F)nc1-c1ccoc1` [Example 108, 3-cyano-4-((6-(2-fluorophenyl)-2-(furan-3-yl)pyridin-3-yl)oxy)-N-(thiazol-2-yl)benzenesulfonamide] displayed an IC50 of 51 to 100 nM.

As to `N#Cc1cc(S(=O)(=O)Nc2nccs2)ccc1Oc1ccc(-c2ccc(F)cc2)nc1-c1ccoc1` [Example 109, 3-cyano-4-((6-(4-fluorophenyl)-2-(furan-3-yl)pyridin-3-yl)oxy)-N-(thiazol-2-yl)benzenesulfonamide], the IC50 is below 50 nM.

On to `N#Cc1cc(S(=O)(=O)Nc2nccs2)ccc1Oc1ccc(-c2cccc(F)c2)nc1-c1ccoc1` [Example 110, 3-cyano-4-((6-(3-fluorophenyl)-2-(furan-3-yl)pyridin-3-yl)oxy)-N-(thiazol-2-yl)benzenesulfonamide], for which the IC50 was below 50 nM.

Take `N#Cc1cc(S(=O)(=O)Nc2nccs2)ccc1Oc1ccc(-c2ccncc2)nc1-c1ccoc1` [Example 111, 3-cyano-4-((6-(furan-3-yl)-[2,4′-bipyridin]-5-yl)oxy)-N-(thiazol-2-yl)benzenesulfonamide]: the IC50 is above 100 nM.

The record behind these values is US9376429B2, “Sodium channel blockers, preparation method thereof and use thereof” (Daewoong Pharmaceutical Co., Ltd., priority 2012, dated 2016).
